According to patent US12576084B2, “Methods for treating testicular and ovarian adrenal rest tumors” (Spruce Biosciences, Inc., priority 2018, dated 2026):

Assays:
[1] = test system: ACTH, 17OHP and androstenedione (A4) in participants with classic CAH; assay: Phase 2 open-label study in adults with classic CAH: change in ACTH, 17OHP and A4; type: in vivo, human
Protocol: (§1) An ongoing Phase 2 open-label study (Study Compound 2) is currently evaluating the safety and efficacy of Compound 1 dosed once daily for 6 weeks in adults with classic CAH. In the initial Cohort A of this study, all subjects are dosed starting at 200 mg/day for 14 days, escalating for each subject to 600 mg/day for 14 days, then 1000 mg/day for 14 days if the subject experiences no DLTs at the previous dose level. (FIGS. 2-3).
30% of subjects were in the normal range (*) after treatment with a CRF1 receptor antagonist.
50% of subjects were in the guideline range (*; 1200 ng/dL) after treatment with a CRF1 receptor antagonist.
50% of subjects were within the normal reference range after treatment with a CRF1 receptor antagonist.
(§2) The objectives of the study are: to assess the ability of Compound 1 to reduce excess ACTH and adrenal steroid production in participants with classic CAH on a stable gluococorticoid regimen; to evaluate the safety and tolerability of tildacerfont in participants with classic CAH; and to evaluate the pharmacokinetics (PK) of tildacerfont.
• Adult males and females 18 years or older • Diagnosis of classic CAH due to 21-hydroxylase deficiency • Morning 17OHP≥800 ng/dL, before taking any morning GC dose • On a stable regimen of gluococorticoid replacement for ≥30 days before enrollment Exclusion Criteria: • Clinically significant unstable medical condition, illness, or chronic disease within 30 days of screening • Clinically significant psychiatric disorder • History of bilateral adrenalectomy or hypopituitarism Study Design
FIG. 14 depicts the proof of concept and escalating QD dosing at 10 PM for Cohort A and the single dose level and BID dosing at 10 AM and 10 pm for Cohort B.
(§3) One participant withdrew early because of an occupation-related scheduling conflict. In Cohort B, 9 participants were enrolled and received at least one dose of Compound 1. […] Thus, baseline characteristics are calculated for n=8 in Cohort B. One participant in Cohort B was taking both HC and prednisone.

[2] = test system: testicular adrenal rest tumors (TART); assay: TART size pre-treatment vs 6 weeks post-treatment in a patient with classic CAH; type: in vivo, human; conditions: person with classic CAH, 6 weeks treatment
From the text: FIG. 10A-10B. Images of a patient with TART pre-treatment with a CRF1 antagonist (Compound 1) (A) and 6-weeks post-treatment with a CRF1 antagonist (Compound 1) (B).
FIGS. 10A-10B show approximately 25% shrinkage in TART in a person with classic congenital adrenal hyperplasia following 6 weeks treatment with a CRF1 receptor antagonist.

[3] = test system: participants with classic CAH; assay: Phase 2 study in classic CAH: safety and tolerability; type: in vivo, human; conditions: across both cohorts
Protocol: as §1, §2, §3

[4] = Phase 2 study in classic CAH: pharmacokinetics; type: in vivo, human; conditions: 200 to 1000 mg QD, patients with CAH
From the text: FIG. 2. Graphic representation of pharmacokinetics (dose-proportional, adequate exposure at safe doses) in patients with CAH following 14-days of once daily dosing at each dose level with a CRF1 antagonist (Compound 1).
FIG. 3. Graphic representation of pharmacokinetics (dose-proportional, adequate exposure at safe doses) in patients with CAH following 14-days of once daily dosing at each dose level with a CRF1 antagonist (Compound 1).
as §1, §2

[5] = Phase 1 studies in healthy volunteers: pharmacokinetics; type: in vivo
Protocol: The specification of study drug dosing at 10 pm and after consumption of a snack is based on information from the Phase 1 studies in healthy volunteers. The plasma Cmax (maximum concentration) for Compound 1 in the Phase 1 studies occurred approximately 5 hours after dosing. Therefore, Compound 1 will be dosed daily at 10 pm in this study in order to achieve peak plasma study drug concentration at the time of day when most adrenal androgens are produced. […] Specific dose reduction criteria, strict individual treatment stopping criteria, and appropriate laboratory and medical assessments have been established to ensure subject safety. (FIGS. 1A-1B).
To date, a total of 53 subjects, all healthy adults aged 21 to 65 years, have been treated with at least 1 dose of Compound 1 in 2 Phase 1 studies. The first-in-human study of Compound 1 (Study I3C-FW-BLAA) evaluated single ascending doses of 2 mg to 800 mg. […] A subsequent study (Study I3C-FW-BLAB) evaluated repeat doses of 50 mg, 100 mg, or 200 mg Compound 1 once daily for 14 consecutive days.

healthy volunteers = assay: Phase 1 studies in healthy volunteers: safety and tolerability; type: in vivo
From the text: Clinical laboratory measures of testicular function (LH, FSH, inhibin B, and SHBG) will be assessed throughout this study to monitor the risk of testicular injury. Testicular ultrasounds and semen analysis will also be performed at screening/baseline and the end of the treatment period.
Clinical laboratory measures of liver chemistry will be assessed throughout this study, and strict individual treatment stopping criteria for liver chemistry findings are in place.

rats = assay: Repeat-dose oral toxicology study, 91 days, rats; type: in vivo, rat
From the text: (§4) The nonclinical safety profile of Compound 1 has been evaluated in repeat-dose range-finding and definitive toxicology studies of up to 91 days in duration in rats and dogs using the clinically relevant route (oral) and schedule of administration (once daily).

beagle dogs = assay: Repeat-dose oral toxicology study, 91 days, beagle dogs; type: in vivo, dog
From the text: as §4

male rats = assay: Fertility toxicology study in male rats; type: in vivo, rat
Protocol: Additionally, a fertility toxicology study was conducted in rats. In this study, male rats were administered oral Compound 1 once daily at 0, 5, 20, or 1000 mg/kg for 85 to 87 days (70 days before mating, during mating, and ≤4 days between mating and necropsy). Male reproductive performance (mean day of mating, mating and fertility indices, and conception rates) was unaffected by Compound 1 treatment.

[6] = Nonclinical studies: liver function tests; type: in vivo; conditions: significantly higher doses
From the text: However, these events were not observed in the Phase 1 clinical studies. Clinical laboratory measures of liver chemistry will be assessed throughout this study, and strict individual treatment stopping criteria for liver chemistry findings are in place.

CRF1 receptor [7] = target: T1, CRF1 receptor (Homo sapiens, UniProt P34998); assay: In vitro and ex vivo CRF1 receptor binding studies
T1 sequence (P34998 24-415): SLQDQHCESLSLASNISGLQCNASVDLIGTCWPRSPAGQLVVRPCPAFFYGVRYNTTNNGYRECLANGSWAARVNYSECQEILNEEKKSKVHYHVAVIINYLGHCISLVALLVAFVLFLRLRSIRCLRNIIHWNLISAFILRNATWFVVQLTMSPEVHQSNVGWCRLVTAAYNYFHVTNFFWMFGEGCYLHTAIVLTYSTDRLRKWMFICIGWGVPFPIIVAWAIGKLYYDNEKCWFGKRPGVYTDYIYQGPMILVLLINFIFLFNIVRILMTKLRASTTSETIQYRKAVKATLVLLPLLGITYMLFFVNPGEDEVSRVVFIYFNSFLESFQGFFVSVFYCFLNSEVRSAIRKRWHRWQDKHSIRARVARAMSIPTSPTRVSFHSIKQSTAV
Protocol: (§5) FIG. 11A-11B. Graphic representation of an […] binding assay of a CRF1 antagonist (Compound 1); ^125I-sauvagine binding to rat cerebellar membranes one hour after oral administration of increasing Compound 1 doses (A) and in vivo inhibition of CRF-induced activity after treatment with a CRF1 antagonist; Compound 1 (oral, 10 mg/kg) (B).

CRF1 receptor [8] = target: T1, CRF1 receptor; assay: Inhibition of adenylate cyclase activity (CRF1 receptor-mediated downstream cascade); type: biochemical; conditions: in vitro
[9] = test system: CRF-induced locomotor behavior; assay: CRF-induced locomotor behavior after i.c.v. administration of CRF; type: in vivo; conditions: oral, 10 mg/kg
Protocol: as §5

[10] = CAH subjects, FIGS. 4 and 5A-5B
[11] = CAH subjects, FIGS. 6 and 7A-7B
[12] = CAH subjects, FIGS. 8 and 9A-9B
[13] = Cohort A (200, 600, 1000 mg QD)
[14] = healthy human subjects, Phase 1

## CCC(CC)c1cc(C)nc2c(-c3sc(N4CCOCC4)nc3Cl)c(C)nn12 [Compound 1, tildacerfont]
[1]; [10]
  subjects in the normal range for ACTH after treatment: 30 % of subjects
  subjects who demonstrated >25% reduction in ACTH: 70 % of subjects
  subjects who demonstrated reduction in ACTH: 80 % of subjects
[1]; [11]
  subjects in the guideline range (1200 ng/dL) for 17-OHP after treatment: 50 % of subjects
  subjects who demonstrated >25% reduction in ACTH (printed in the 17-OHP paragraph): 50 % of subjects
  subjects who demonstrated reduction in 17-OHP: 80 % of subjects
[1]; [12]
  subjects who demonstrated >25% reduction in androstenedione: 60 % of subjects
  subjects within the normal reference range for androstenedione after treatment: 50 % of subjects
[1]; CAH subjects, at various doses, FIGS. 8 and 9A-9B
  subjects who demonstrated reduction in androstenedione: 100 % of subjects
[1]; [13]
  participants whose levels of 17OHP improved at ≥1 dose level: 8 out of 10
  participants whose levels of A4 improved at ≥1 dose level: 10 out of 10
  participants whose levels of ACTH improved at ≥1 dose level: 8 out of 10
[1]; Cohort A, 200 mg QD (Week 2)
  Percentage change from baseline in 17OHP: +22.2 (±172.3) %
  Percentage change from baseline in A4: −12.1 (±47.4) %
  Percentage change from baseline in ACTH: −25.7 (±51.6) %
[1]; Cohort A, 600 mg QD (Week 4)
  Percentage change from baseline in 17OHP: −23.7 (±64.2) %
  Percentage change from baseline in A4: −33.2 (±36.5) %
  Percentage change from baseline in ACTH: −60.1 (±37.5) %
[1]; Cohort A, 1000 mg QD (Week 6)
  Percentage change from baseline in 17OHP: −13.8 (±74.7) %
  Percentage change from baseline in A4: −28.6 (±44.6) %
  Percentage change from baseline in ACTH: −32.7 (±47.0) %
[1]; Cohort B (200 mg BID)
  participants whose levels of 17OHP improved at ≥1 dose level: 6 out of 7
  participants whose levels of A4 improved at ≥1 dose level: 6 out of 8
  participants whose levels of ACTH improved at ≥1 dose level: 5 out of 7
[1]; Cohort B, 200 mg BID (Weed 2)
  Percentage change from baseline in 17OHP: −47.8 (±63.3) %
  Percentage change from baseline in A4: −16.0 (±81.4) %
  Percentage change from baseline in ACTH: −36.5 (±58.0) %
[2]
  shrinkage in TART: approximately 25%
[3]
  most common type of adverse event (AE): gastrointestinal disorders
  serious AEs and AEs leading to withdrawal: no serious AEs and no AEs leading to withdrawal
  tolerability: generally well tolerated
[4]
  PK profile: predictable, dose-dependent PK profile
[5]
  study drug absorption in a fasted state: minimal study drug absorption
Healthy volunteers; Phase 1 clinical studies
  laboratory abnormalities in liver function tests (LFTs): not observed
Healthy volunteers; Phase 1 studies
  alterations in safety laboratory values, vital signs, or electrocardiograms (ECGs): no clinically significant alterations
Healthy volunteers; Study I3C-FW-BLAA, 2 mg to 800 mg, small number of subjects
  adverse events, single ascending doses: diarrhea and headache of mild or moderate severity
Healthy volunteers; Study I3C-FW-BLAB, 50, 100 or 200 mg once daily for 14 days, small number of subjects
  adverse events, repeat doses: dyspnea, rhinorrhea, palpitations, and headache
Healthy volunteers; [14]
  SAEs, AEs leading to discontinuation, dose-limiting toxicities: no SAEs, AEs leading to discontinuation, or dose-limiting toxicities (DLTs)
  tolerability: well tolerated
Healthy volunteers; healthy male volunteers, up to 200 mg per day for 14 consecutive days
  effects on clinical laboratory markers of testicular function (LH and FSH): no effects
Healthy volunteers; humans
  maximum tolerated dose: has not been reached
rats; 6-week treatment-free recovery period
  reversibility of findings: reversible
rats; high-dose 2,000 mg/kg/day
  testicular effects: reversible testicular effects (degeneration/atrophy)
rats; oral once daily, 91 days, up to 2000 mg/kg/day
  toxicologic findings: all mild and limited to the male reproductive tract
Beagle dogs; beagle dogs, 6-week treatment-free recovery period
  reversibility of findings: reversible
Beagle dogs; beagle dogs, oral once daily, 91 days, up to 2000 mg/kg/day
  toxicologic findings: all mild and limited to the male reproductive tract
Beagle dogs; dogs, 91 days, high-dose 2,000 mg/kg/day
  effects on the thyroid gland: effects on the thyroid gland were noted
Beagle dogs; dogs, high-dose 2,000 mg/kg/day
  testicular effects: reversible testicular effects (degeneration/atrophy)
Male rats; male rats, oral once daily 5, 20 or 1000 mg/kg for 85 to 87 days
  male reproductive performance (mean day of mating, mating and fertility indices, conception rates): unaffected
Male rats; male reproductive studies in rodents, highest dose tested 1,000 mg/kg/day
  impairment in fertility: no impairment in fertility
Male rats; rats
  ovarian and uterine effects in untreated females mated with treated males: no ovarian and uterine effects
[6]
  laboratory abnormalities in liver function tests (LFTs): have been observed at significantly higher doses
CRF1 receptor [7]
  affinity and selectivity for the hCRF1 receptor: high affinity and selective for the hCRF1 receptor
CRF1 receptor [8]
  inhibition of adenylate cyclase activity: functional potency to inhibit adenylate cyclase activity
[9]
  inhibition of CRF-induced locomotor behavior: significantly inhibit
